# Measurements published in US20250230147A1, “LACTAMS AS CBL-B INHIBITORS” (Genentech, Inc., priority 2021, published 2025).
# pIC50: −log10 of the molar value. Structures can show the parent of a compound that is named as a salt.
# Tests used:
# Cbl-b = Cbl-b (Homo sapiens (Human), UniProt Q13191); test: Cbl-b LCK Ub TR-FRET assay (Cbl-b Lck HTRF); assay type: biochemical
# In short: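 Biotin-Cbl-b preincubated with compound (10-point 3-fold series) 60 min, then His-LCK with 1 mM ATP (2× mixture) added for 90 min at room temperature. Ubiquitination detected by TR-FRET using HA-ubiquitin/UBE2D2 adduct, anti-HA-D2 and streptavidin-Eu; IC50 normalised to no-LCK and DMSO controls.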
# c-Cbl = c-Cbl (Homo sapiens (Human), UniProt P22681); test: C-Cbl LCK Ub TR-FRET assay (c-cbl Lck HTRF); assay type: biochemical; conditions: for (fold-selectivity): C-cbl Lck HTRF IC50 relative to Cbl-b Lck HTRF IC50
# In short: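 Detection reagents added, brief spin, 20 min RT. IC50 fit normalized to no-LCK (low) and DMSO (high) controls.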
# Cbl-b, sequence (Q13191 40-426): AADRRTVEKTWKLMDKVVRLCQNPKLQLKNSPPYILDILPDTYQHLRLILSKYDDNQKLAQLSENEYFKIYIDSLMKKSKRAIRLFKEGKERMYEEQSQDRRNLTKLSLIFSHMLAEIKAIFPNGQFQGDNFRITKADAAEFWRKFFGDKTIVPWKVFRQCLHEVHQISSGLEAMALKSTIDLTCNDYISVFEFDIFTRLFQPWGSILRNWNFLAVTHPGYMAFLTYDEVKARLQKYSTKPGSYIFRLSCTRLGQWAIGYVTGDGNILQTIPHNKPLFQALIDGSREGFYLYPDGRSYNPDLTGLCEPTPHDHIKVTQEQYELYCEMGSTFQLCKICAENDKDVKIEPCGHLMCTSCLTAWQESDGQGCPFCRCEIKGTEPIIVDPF
# c-Cbl, sequence (P22681 47-435): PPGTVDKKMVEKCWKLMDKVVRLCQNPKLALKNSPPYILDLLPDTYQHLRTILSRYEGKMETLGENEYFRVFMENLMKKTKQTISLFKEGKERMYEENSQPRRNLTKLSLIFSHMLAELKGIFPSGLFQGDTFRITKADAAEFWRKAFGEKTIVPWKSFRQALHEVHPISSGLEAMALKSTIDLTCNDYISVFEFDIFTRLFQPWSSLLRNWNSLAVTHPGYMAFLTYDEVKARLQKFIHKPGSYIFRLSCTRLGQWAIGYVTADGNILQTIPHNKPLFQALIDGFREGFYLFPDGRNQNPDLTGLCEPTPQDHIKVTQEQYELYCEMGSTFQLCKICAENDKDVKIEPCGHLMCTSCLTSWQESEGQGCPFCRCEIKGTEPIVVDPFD
SMILES,pIC50 (Cbl-b),pIC50 (c-Cbl),(fold-selectivity) (c-Cbl),"fold of selectivity (Cbl-b; Cbl-b over c-Cbl, Lck HTRF IC50) [x]"
"COC[C@H]1CCCN1Cc1cc2c(c(C(F)(F)F)c1)CN(c1cccc(C3([C@H](F)c4nncn4C)COC3)c1)C2=O [Compound 156, 2-(3-(3-((S)-fluoro(4-methyl-4H-1,2,4-triazol-3-yl)methyl)oxetan-3-yl)phenyl)-6-(((R)-2-(methoxymethyl)pyrrolidin-1-yl)methyl)-4-(trifluoromethyl)isoindolin-1-one]",6.04,5.28,5.6x,5.6
"CSc1cc(C2(Cc3nncn3C)CCC2)cc(N2Cc3c(cc(CNC4(C)CCC4)cc3C(F)(F)F)C2=O)n1 [Compound 251, 2-(4-(1-((4-methyl-4H-1,2,4-triazol-3-yl)methyl)cyclobutyl)-6-(methylthio)pyridin-2-yl)-6-(((1-methylcyclobutyl)amino)methyl)-4-(trifluoromethyl)isoindolin-1-one]",7.96,8.08,(0.76x),
"Cn1cnnc1[C@@H](F)C1(c2cccc(N3Cc4c(cc(CN5CCC[C@@H]5CO)cc4C(F)(F)F)C3=O)c2)COC1 [Compound 148, 2-(3-(3-((S)-fluoro(4-methyl-4H-1,2,4-triazol-3-yl)methyl)oxetan-3-yl)phenyl)-6-(((R)-2-(hydroxymethyl)pyrrolidin-1-yl)methyl)-4-(trifluoromethyl)isoindolin-1-one]",6.16,6.14,1.1x,
"Cc1ncnn1CC1(c2cccc(N3Cc4c(cc(CN5CCN(C)C[C@@H]5C(C)C)cc4C(F)(F)F)C3=O)c2)COC1 [Compound 254, (S)-6-((2-isopropyl-4-methylpiperazin-1-yl)methyl)-2-(3-(3-((5-methyl-1H-1,2,4-triazol-1-yl)methyl)oxetan-3-yl)phenyl)-4-(trifluoromethyl)isoindolin-1-one]",5.62,5.49,(1.4x),
"COCC1CCN(Cc2cc3c(c(C(F)(F)F)c2)CN(c2cccc(C4([C@H](F)c5nncn5C)COC4)c2)C3=O)CC1 [Compound 146, (S)-2-(3-(3-(fluoro(4-methyl-4H-1,2,4-triazol-3-yl)methyl)oxetan-3-yl)phenyl)-6-((4-(methoxymethyl)piperidin-1-yl)methyl)-4-(trifluoromethyl)isoindolin-1-one]",6.37,6.32,1.1x,
"Cn1cnnc1[C@H](F)C1(c2cccc(N3Cc4c(cc(CN5CC(C)(C)C5)cc4C(F)(F)F)C3=O)c2)COC1 [Compound 72, (R)-6-((3,3-dimethylazetidin-1-yl)methyl)-2-(3-(3-(fluoro(4-methyl-4H-1,2,4-triazol-3-yl)methyl)oxetan-3-yl)phenyl)-4-(trifluoromethyl)isoindolin-1-one]",7.26,6.96,2.1x,
"Cn1cnnc1CC1(c2cccc(N3Cc4c(cc(CNCC5(C)CC5)cc4C(F)(F)F)C3=O)c2)CC(F)(F)C1 [Compound 352, 2-(3-(3,3-difluoro-1-((4-methy-4H-1,2,4-triazol-3-yl)methyl)cyclobutyl)phenyl)-6-((((1-methylcyclopropyl)methyl)amino)methyl)-4-(trifluoromethyl)isoindolin-1-one formate]",7.92,8.17,,
"CCNC(=O)CNc1cc(C2(Cc3nncn3C)CCC2)cc(N2Cc3c(cc(CNC4(C)CCC4)cc3C(F)(F)F)C2=O)n1 [Compound 307, N-ethyl-2-((4-(1-((4-methyl-4H-1,2,4-triazol-3-yl)methyl)cyclobutyl)-6-(6-(((1-methylcyclobutyl)amino)methyl)-1-oxo-4-(trifluoromethyl)isoindolin-2-yl)pyridin-2-yl)amino)acetamide formate]",6.74,6.51,,
"CC(C)[C@H]1CN(C)CCN1Cc1cc2c(c(C(F)(F)F)c1)CN(c1cccc(C3([C@H](F)c4nncn4-c4ccccc4)COC3)c1)C2=O [Compound 260, 2-(3-(3-((S)-fluoro(4-phenyl-4H-1,2,4-triazol-3-yl)methyl)oxetan-3-yl)phenyl)-6-(((S)-2-isopropyl-4-methylpiperazin-1-yl)methyl)-4-(trifluoromethyl)isoindolin-1-one]",5.25,5.08,(1.5x),
CC(C)[C@H]1CN(Cc2cc3c(c(C(F)(F)F)c2)CN(c2cccc(C4([C@H](F)c5nncn5C)COC4)c2)C3=O)CCN1 [Compound 91],6.85,6.77,1.2x,
"CC(C)[C@H]1CN(CC(F)(F)F)CCN1Cc1cc2c(c(C(F)(F)F)c1)CN(c1cccc(C3([C@@H](F)c4nncn4C)COC3)c1)C2=O [Compound 202, 2-(3-(3-((R)-fluoro(4-methyl-4H-1,2,4-triazol-3-yl)methyl)oxetan-3-yl)phenyl)-6-(((S)-2-isopropyl-4-(2,2,2-trifluoroethyl)piperazin-1-yl)methyl)-4-(trifluoromethyl)isoindolin-1-one]",6.82,6.40,2.6x,

# Other lines, results leading:
pIC50 (Cbl-b),pIC50 (c-Cbl),(fold-selectivity) (c-Cbl),"fold of selectivity (Cbl-b; Cbl-b over c-Cbl, Lck HTRF IC50) [x]",SMILES
6.68,6.39,(1.9x),,"CC[C@@H](C)Nc1cc(C2(Cc3nncn3C)COC2)cc(N2Cc3c(cccc3C(F)(F)F)C2=O)n1 [Compound 482, (R)-2-(6-(sec-butylamino)-4-(3-((4-methyl-4H-1,2,4-triazol-3-yl)methyl)oxetan-3-yl)pyridin-2-yl)-4-(trifluoromethyl)isoindolin-1-one]"
7.59,7.48,(1.3x),,"CCCNCc1cc2c(c(C(F)(F)F)c1)CN(c1cccc(C3([C@@H](F)c4nncn4C)CC(F)(F)C3)c1)C2=O [Compound 445, (R)-2-(3-(3,3-difluoro-1-(fluoro(4-methyl-4H-1,2,4-triazol-3-yl)methyl)cyclobutyl)phenyl)-6-((propylamino)methyl)-4-(trifluoromethyl)isoindolin-1-one]"
7.24,7.22,(1.0x),,"CC1(NCc2cc3c(c(C(F)(F)F)c2)CN(c2cccc(C4(Cc5nncn5C5CC5)CC(F)(F)C4)c2)C3=O)CCC1 [Compound 492, 2-(3-(1-((4-cyclopropyl-4H-1,2,4-triazol-3-yl)methyl)-3,3-difluorocyclobutyl)phenyl)-6-(((1-methylcyclobutyl)amino)methyl)-4-(trifluoromethyl)isoindolin-1-one]"
7.41,7.29,(1.3x),,"Cn1cnnc1CC1(c2cccc(N3Cc4c(cc(CN)cc4C(F)(F)F)C3=O)c2)CC(F)(F)C1 [Compound 400, 6-(aminomethyl)-2-(3-(3,3-difluoro-1-((4-methyl-4H-1,2,4-triazol-3-yl)methyl)cyclobutyl)phenyl)-4-(trifluoromethyl)isoindolin-1-one]"
7.48,7.64,(0.70x),,"COCCOCCNc1cc(C2(Cc3nncn3C)CCC2)cc(N2Cc3c(cc(CNC4(C)CCC4)cc3C(F)(F)F)C2=O)n1 [Compound 336, 2-(6-((2-(2-methoxyethoxy)ethyl)amino)-4-(1-((4-methyl-4H-1,2,4-triazol-3-yl)methyl)cyclobutyl)pyridin-2-yl)-6-(((1-methylcyclobutyl)amino)methyl)-4-(trifluoromethyl)isoindolin-1-one]"
